From US4996227A, “3-(heteroarylalkyene)- and 3-(arylalkylene)-2,4(3H,5H)-heterocyclic diones as cancer chemotherapy drugs” (priority 1989, dated 1991)

How the values were obtained:
[1] = test system: healthy mice; assay: Toxicology testing in healthy mice: hematology; type: in vivo; conditions: for Absolute Neutrophils / Hemoglobin / WBC: i.p.
Experimental: (§1) The purpose of this example was to determine approximate toxicity of the compound 3[(5-methyl-2-thienyl) methylene]-2,4(3H,5H)-furandione in healthy mice. The in vivo concentrations employed in the example were selected by using the in vitro results in the Human Tumor Stem Cell Assay as a guide. The compound was given to the mice by means of intra-peritoneal injection. In addition to a control group which was injected with the appropriate carrier solution without drug, three test groups with calculated plasma concentrations of 1, 10 and 100 mcg/ml (low, medium and high concentrations) were prepared. Based upon the results from Table 1, the three test groups represent low, medium and high concentrations of drug dosages. The highest concentration of 100 mcg/ml is about 10 times the predicted effective dose (in vivo) of tumoricidal activity. Each group contained eight animals. Blood was extracted from four animals in each group two days after the intraperitoneal injection and routine hematology (i.e., a hemoglobin concentration, a white blood cell count, and a neutrophil count) procedures were performed.
(§2) Half of the animals in each group were sacrificed after one week (Day 7), and the remaining animals in each group were sacrificed after two weeks (Day 14). Routine hematology was performed at the time of sacrifice.

[2] = test system: healthy mice; assay: Toxicology testing in healthy mice: deaths / LD50; type: in vivo; conditions: i.p.
Experimental: as §1, §2

[3] = test system: K562 cells (human chronic granulocytic leukemia); assay: K562 human leukemia cell suspension culture, cell concentration; type: cell-based; conditions: 1 ug/ml
Experimental: In this example, 1 mcg/ml of 3[[5-methyl-2-thienyl]methylene]2, 4 (3H, 5H) furandione was compared to 1 mcg/ml of 3[[3-methyl-2-thienyl]methylene]2, 4 (3H, 5H) furandione.
A conventionally available cell line (K562) derived from human chronic granulocytic leukemia was employed in an in vitro procedure. The leukemia cell line was cultured in a suspension of RPMI 1640 plus 10% fetal calf serum. All initial cell concentrations for the cultures were 0.65 times 10^5 cells/ml. Four separate suspension cultures were employed with the first suspension culture having no additions. The second suspension culture included 100 microliters of the solvent DMSO per 10 ml of culture (control). The third culture contained 1 ug/ml of 3[[5-methyl-2 thienyl]methylene]-2, 4 (3H, 5H) furandione and the fourth culture contained 1 ug/ml of 3[[3-methyl-2-thienyl]methylene]-2, 4 (3H, 5H) furandione. The cell concentration of each of the four cultures was determined. After three days and again after five days.

[4] = test system: human tumor H5349 BREAST; assay: Human Tumor Stem Cell Assay, colony growth after one hour exposure; type: cell-based; conditions: 1 h
Excerpt: (§3) The in vitro Human Tumor Stem Cell Assay procedure described as follows has several advantages for testing the effectiveness of chemotherapy drugs such as the 3-(heteroarylalkylene)-2,4(3H,5H)-furandiones. The first advantage is that fresh tumor cells from a variety of tumor types were used rather than a small number of cell lines which have undergone severe selection pressures as they are passed in vitro. The second advantage is that only the anchorage-independent tumor cells will form colonies in soft agar so that any non-malignant cells present in the sample will not form colonies. Perhaps the most important advantage, however, is the emphasis on cells which have the ability to form colonies. These cells, which are generally called stem cells, usually comprise only a small percentage of all tumor cells. They are thought to be the most important cells for growth and distant spread of a tumor. In particular, these cells have the potential to leave the primary tumor and form new tumors at distant sites (called metastases). It is the effectiveness against these very important stem cells that the Human Tumor Stem Cell Assay measures.
(§4) One of the 3-(heteroarylalkylene)-2,4(3H,5H)-furandione compounds, 3-[(5-methyl-2-thienyl) methylene]-2,4(3H,5H)-furandione was evaluated against a series of 10 human tumors in the in vitro Human Tumor Cell Assay, along with conventional and standard chemotherapy agents.
(§5) In the procedure, a single cell suspension was prepared from tumors excised from patients during therapeutic or diagnostic surgical procedures. The human tumor cells were exposed to known anticancer drugs or to [(5-methyl-2-thienyl)methylene]-2,4 (3H, 5H)-furandione at a low (0.2 mcg/ml) or a high (1.0 mcg/ml) concentration for one hour. […] The suspension was washed with tissue culture medium to remove the drug.
(§6) The suspension was then cultured in a double soft agar suspension. Control cells which had been treated identically, except for exposure to the drugs, were also cultured. After one to two weeks, both the tumor cells and the control cells formed colonies in the soft agar which were enumerated under a microscope. The number of colonies grown from the drug-treated cells was compared to the number of colonies grown from the control cells, and the percentage growth after exposure to the drug was calculated.
(§7) The results are illustrated in Table 1, wherein the various numbers indicate the percentage of growth. For example, a small number like 6 means that the number of colonies is only 6% of the number without addition of the compound. On the other hand, a large number like 120 means that the number of colonies is 20% greater with the compound than without.
(§8) Of the nine tumors for which the higher concentration (1.0 mcg/ml) of the furandione was used, five gave inhibition of colony growth corresponding to borderline sensitive (30-50% growth) and four gave inhibition corresponding to sensitivity (0-30% growth). Clinical drugs are normally tested at 10% of their peak plasma concentration. For the standard chemotherapy drugs shown in Table 1, the low concentration (LO) corresponds to this 10% level, and the high concentration (HI) is at 50% of the peak plasma concentration. Of the same nine tumors, only two would have been rated as sensitive or borderline sensitive to any of the other clinical drugs tested.

[5] = test system: human tumor H5315 BREAST; assay: as above; type: cell-based; conditions: LO: furandione 0.2 mcg/ml; standard drugs 10% of peak plasma concentration; 1 h
Excerpt: as §3, §4, §5, §6, §7, §8

[6] = test system: human tumor H5340 **; assay: as above; type: cell-based; conditions: 1 h
Excerpt: as §3, §4, §5, §6, §7, §8

[7] = high, 100 mcg/ml calculated plasma, Day 2
[8] = high, 100 mcg/ml calculated plasma, Day 7
[9] = high, 100 mcg/ml calculated plasma, Day 14
[10] = low, 1 mcg/ml calculated plasma, Day 2
[11] = low, 1 mcg/ml calculated plasma, Day 7
[12] = low, 1 mcg/ml calculated plasma, Day 14
[13] = medium, 10 mcg/ml calculated plasma, Day 2
[14] = medium, 10 mcg/ml calculated plasma, Day 7
[15] = medium, 10 mcg/ml calculated plasma, Day 14
[16] = HI: furandione 1.0 mcg/ml, standard drugs 50% of peak plasma concentration
[17] = LO: furandione 0.2 mcg/ml, standard drugs 10% of peak plasma concentration

## Cc1ccc(C=C2C(=O)COC2=O)s1 [Compound 4, 3[(5-methyl-2-thienyl)methylene]2,4(3H,5H)-furandione]
[1]; after one week
  absolute neutrophil count, change: significant decrease in the absolute neutrophil count after one week, indicating suppression of bone marrow
[1]; all groups
  total white blood cell count, change: slightly decreased from Day 2 to Day 7, the count increased in all groups from Day 7 to Day 14
[1]; all test groups, 14-day test period
  hemoglobin levels, change: no significant decreases in hemoglobin levels
[1]; at drug level predicted by the in vitro assay
  myelosuppression in vivo: some myelosuppression in vivo
[1]; blood smears
  platelet count, change: platelet count was not significantly decreased
[1]; [7]
  Absolute Neutrophils: 5224 cells/ul
  Hemoglobin: 13.2 g/100 ml
  WBC: 9594 Cells/ul
[1]; [8]
  Hemoglobin: 13.6 g/100 ml
  WBC: 5775 Cells/ul
[1]; high, 100 mcg/ml calculated plasma, Day 7 (text SD=622), 4 (3H, 5H) FURANDIONE
  Absolute Neutrophils: 1167 cells/ul
[1]; high, 100 mcg/ml calculated plasma, Day 7 (text SD=622), listed as tested furandione compound
  Absolute Neutrophils: 1,167 cells/ul
[1]; [9]
  Absolute Neutrophils: 2025 cells/ul
  Hemoglobin: 13.9 g/100 ml
  WBC: 12,175 Cells/ul
[1]; [10]
  Absolute Neutrophils: 2869 cells/ul
  Hemoglobin: 13.7 g/100 ml
  WBC: 7000 Cells/ul
[1]; [11]
  Hemoglobin: 14.25 g/100 ml
  WBC: 6562 Cells/ul
[1]; low, 1 mcg/ml calculated plasma, Day 7 (text SD=942), 4 (3H, 5H) FURANDIONE
  Absolute Neutrophils: 1731 cells/ul
[1]; low, 1 mcg/ml calculated plasma, Day 7 (text SD=942), listed as tested furandione compound
  Absolute Neutrophils: 1,731 cells/ul
[1]; [12]
  Hemoglobin: 13.6 g/100 ml
  WBC: 9675 Cells/ul
[1]; low, 1 mcg/ml calculated plasma, Day 14, three animals
  Absolute Neutrophils: 2183 cells/ul
[1]; low, 1 mcg/ml, Day 7
  neutrophil difference vs control: no significant difference between the control and the low concentration group
[1]; [13]
  Absolute Neutrophils: 3946 cells/ul
  Hemoglobin: 13.6 g/100 ml
  WBC: 7787 Cells/ul
[1]; [14]
  Hemoglobin: 13.9 g/100 ml
  WBC: 5812 Cells/ul
[1]; medium, 10 mcg/ml calculated plasma, Day 7 (text SD=492), 4 (3H, 5H) FURANDIONE
  Absolute Neutrophils: 1009 cells/ul
[1]; medium, 10 mcg/ml calculated plasma, Day 7 (text SD=492), listed as tested furandione compound
  Absolute Neutrophils: 1,009 cells/ul
[1]; [15]
  Hemoglobin: 13.6 g/100 ml
  WBC: 8700 Cells/ul
[1]; medium, 10 mcg/ml calculated plasma, Day 14, three animals
  Absolute Neutrophils: 1256 cells/ul
[1]; medium, 10 mcg/ml, Day 7
  P, neutrophil difference vs control: < 0.05
[2]; 1, 10, 100 mcg/ml calculated plasma, testing period
  deaths due to the compound: no deaths
[2]; as calculated plasma concentration
  LD50: > 100 µg/mL
[3]
  effect on leukemia culture: very effective against the leukemia culture as demonstrated by the remarkable decrease in cell concentration
[3]; 3 Days
  Cell Conc.: 70000 mL⁻¹
[3]; 5 Days
  Cell Conc.: 50000 mL⁻¹
[4]; [16]
  percentage of growth (colonies vs control): 9%
[4]; [17]
  percentage of growth (colonies vs control): 82%
[5]
  percentage of growth (colonies vs control): 62%
[6]; [16]
  percentage of growth (colonies vs control): 50%
[6]; [17]
  percentage of growth (colonies vs control): 62%
